Data as given in patent publication US20130237556A1, “BERBERINE ALKALOID AS A MEDICAMENT FOR PREVENTION AND TREATMENT OF NEURAL DISEASE” (HONG KONG BAPTIST UNIVERSITY, priority 2012, published 2013).
“And” between values parts separate entries of the source, which are not always exact repeats. Identical values can stand only once.

How the values were obtained:
[1] = BBR levels in TgCRND8 brain tissue by LC/MS after oral administration; format: in vivo, mouse; details: for concentration at 3 hr: TgCRND8, mouse, brain, po, 3 hr after p.o. administration, LC/MS
Method: To determine how oral administration of BBR influences the concentration of BBR in the brain, liquid chromatography and mass spectrometry techniques (LC/MS) are used to analyze changes in BBR levels in the TgCRND8 brain tissue in a separate experiment. BBR levels in the brain are found to be 0.88±0.27 and 1.67±0.73 μM for low and high doses of BBR respectively after 3 hr p.o. administration.

[2] = system: TgCRND8 mice; assay: Aβ plaque burden by 4G8 immunostaining in cortex and hippocampus; format: in vivo, mouse
[3] = system: TgCRND8 mice; assay: Morphometric analysis of Aβ plaque size subsets; format: in vivo, mouse
[4] = system: TgCRND8 mice; assay: Thioflavin S staining of fibrillar parenchymal and cerebrovascular (CAA) Aβ; format: in vivo, mouse; details: for reduction in ThioS-positive fibrillar Aβ: relative to untreated control TgCRND8
[5] = system: TgCRND8 mice; assay: Aβ1-40 and Aβ1-42 sandwich ELISA in SDS and formic acid brain extracts; format: in vivo, mouse
[6] = system: TgCRND8 mice; assay: Microgliosis (Iba-1 burden) and astrocytosis (GFAP burden) immunohistochemistry; format: in vivo, mouse
[7] = system: N2a-SwedAPP cells; assay: Western blot of N2a-SwedAPP cell lysates (p-Akt, pGSK3, CTFs, p-APP, PHF-1); format: cell-based, mouse
Method: N2a-SweAPP cells are mouse neuroblastoma N2a cells stably transfected with human Swedish mutant APP695, and were gifts from Dr. Gopal Thinakaran (University of Chicago, Chicago Ill.). Cells were maintained in Dulbecco's modified Eagle's medium (DMEM) (Invitrogen, Carlsbad, Calif.) supplemented with 10% fetal bovine serum, penicillin and streptomycin and 200 μg/mL G418 (Invitrogen). Cells were cultured either in multiwell dishes or on 60 mm tissue culture plates in DMEM 10% with FBS Cell cultures were incubated at 37° C. in a humid 5% CO2/ 95% air environment. After cells were grown close to confluence, they were treated with/without different concentrations of BBR in DMEM (1% FBS) for 24 h. […] For the concentration-dependent treatment, cells were treated with serial dilutions of BBR ranging from 0-20 μM for 2 or 12 h prior to lysis with ice-cold RIPA buffer (20 mM Tris, pH 7.4, 150 mM NaCl, 1% triton-X, 0.5% sodium deoxycholate, EDTA) containing protease inhibitor cocktails (EMD chemicals, Philadelphia, Pa.) to find the optimal range of BBR. For the time-dependent application, cells were treated with a 20 μM concentration of BBR and incubated at time points ranging from 0-180 min prior to lysis. For immunofluorescent staining, N2a-SwedAPP cells were seeded on glass cover slips at a density of 0.5×10^5 viable cells per well in a 24-well plate. Cells on cover slips were treated with BBR (20 μM) for 3 h with or without pretreatment of LY294002 (Cell signaling Technology, Danvers, Mass.), a specific inhibitor of Akt upstream kinase phosphatidylinositol 3-kinase (PI3K) (Vlahos et al., 1994) in serum-free DMEM for 1 h, whereas control cells were incubated with vehicle (DMSO) alone in DMEM.
The brain SDS fraction as described above was used to detect the full-length APP (Fl-APP), APP C-terminal fragments (CTFs: CTF-β and CTF-α), p-APP, p-CTFs, BACE-1, ADAM-10, neprilysin, insulin-degrading enzyme (IDE), GSK3α/β, p-cyclin-dependent kinase 5 (p-CDKS), p-stress-activated protein kinase/Jun-amino-terminal kinase (p-JNK), phospho-tau epitopes and β-actin in Western blot analysis. For cell homogenates preparation, cells were washed with phosphate-buffered saline (PBS) and solubilized in ice-cold RIPA buffer. Equal amounts of protein (30 μg) were subjected to 10 and 15% SDS polyacrylamide gels, transferred onto PVDF membranes (GE Healthcare, Piscataway, N.J.) at 300 mA for 2 h, and then blocked with 5% fat-free milk in Tris-buffered saline and 0.1% Tween-20 for 2 h at room temperature. The membrane was then incubated with primary antibodies overnight at 4C. The antibodies used in Western blots were β-actin (mouse, 1:5000; Santa Cruz, Calif.), p-APP (rabbit, 1:1000; Cell signaling Technology), BACE-1 (rabbit, 1:1000; Abcam, Cambridge, Mass.), ADAM-10 (rabbit, 1:2000; EMD chemicals), insulin-degrading enzyme (IDE) (rabbit, 1:1000, Abcam), neprilysin (rabbit, 1:1000 Millipore, Temecula, Calif.), Akt (rabbit, 1:1000; Cell Signaling Technology), p-Akt (rabbit, 1:1000; Cell signaling), glycogen synthase kinase 3α/β(GSK-3α/β)[Ser21/9] (rabbit, 1:1000; Cell signaling Technology), pGSK-3α/βSer21/9] (rabbit, 1:1000; Cell signaling Technology), Cdk5[Y15] (rabbit, 1:1000; Abcam), JNK (Thr183/Tyr185) (rabbit, 1:1000, Cell signaling Technology), the C-terminal anti-APP antibody CT15 for full-length APP and CTFβ and CTFα (rabbit, 1:2000, and three mouse monoclonal antibodies against phosphorylated tau: AT8 (recognizes phosphorylated tau at Ser-202 and Thr-205, 1:1000, Pierce, Rockford, Ill.), AT180 (recognizes phosphorylated tau at Thr-231 and Ser-235, 1:1000, Pierce) and PHF-1 (recognizes -phosphorylated tau at […] and Ser 404, 1:2000, and one mouse monoclonal against dephosphorylaed tau: Tau-1 (recognizes the tau when serines 195, 198, 199, and 202 are dephosphorylated, 1:2000,). Mouse monoclonal Tau-5 used to recognize total tau (mouse 1:2000). Blots were washed in and incubated with corresponding horseradish peroxidase-conjugated secondary antibody. […]

[8] = low dose BBR, SDS and FA fractions
[9] = BBR-treated TgCRND8, dose not stated (discussion)

Question: Which concentration at 3 hr ([1]; 25 mg/kg/d, low dose of BBR) does the source give for `COc1ccc2cc3[n+](cc2c1OC)CCc1cc2c(cc1-3)OCO2` [BBR, 5,6-dihydro-9,10-dimethoxybenzo[g]-1,3-benzodioxolo[5,6-a]quinolizinium] here?
Answer: 880 ± 270 nM

Question: What about the concentration at 3 hr ([1]; 100 mg/kg/d, high dose of BBR) of the same molecule?
Answer: 1670 ± 730 nM

Question: And the “passage through the blood-brain barrier” value ([1]; mouse, in vivo)?
Answer: readily passes through the blood-brain barrier

Question: And the “decrease in plaque burden compared with control animals (4G8)” value ([2]; 25 mg/Kg/d)?
Answer: 60% and 61%

Question: And the “reduction in amyloid burden observed in this study” value ([2]; range over BBR doses (discussion))?
Answer: 43-63%

Question: What about the “percentage reduction in large (>50) amyloid plaque subset” value ([3]; 25 mg/Kg) of the same molecule?
Answer: 60%

Question: And the “percentage reduction in medium (25-50 μm) amyloid plaque subset” value ([3]; 25 mg/Kg)?
Answer: 41%

Question: What about the “percentage reduction in small sized (<25 μm) amyloid plaque subset” value ([3]; 25 mg/Kg) of the same molecule?
Answer: 35%

Question: What about the “percentage reduction in total amyloid plaque number” value ([3]; 25 mg/Kg) of the same molecule?
Answer: 37%

Question: And the “reduction of amyloid plaque subsets” value ([3]; 100 mg/Kg/d)?
Answer: 21-28%

Question: And the “ThioS-labeled blood vessels (CAA), cortical area covered” value ([4]; 25 mg/Kg/d (vehicle 1.44±0.17%))?
Answer: 0.70% ±0.11

Question: And the “reduction in ThioS-positive fibrillar Aβ” value ([4]; 25 mg/kg/d)?
Answer: 40%

Question: What about the “ThioS-labeled blood vessels (CAA), cortical area covered” value ([4]; 100 mg/Kg/d (vehicle 1.44±0.17%)) of the same molecule?
Answer: 0.89%±0.02

Question: And the “reduction in ThioS-positive fibrillar Aβ” value ([4]; 100 mg/kg/d)?
Answer: 51%

Question: And the “diminution of Aβ1-40, SDS-soluble fraction” value ([5]; 25 mg/Kg/d)?
Answer: 44%

Question: What about the “reduction of Aβ1-40, formic acid extractable fraction” value ([5]; 25 mg/Kg/d) of the same molecule?
Answer: 49%

Question: And the “reduction of Aβ1-42, formic acid extractable fraction” value ([5]; 25 mg/Kg/d)?
Answer: 44%

Question: What about the “diminution of Aβ1-40, SDS-soluble fraction” value ([5]; 100 mg/Kg/d) of the same molecule?
Answer: 32%

Question: What about the “reduction of Aβ1-40, formic acid extractable fraction” value ([5]; 100 mg/Kg/d) of the same molecule?
Answer: 54%

Question: What about the “reduction of Aβ1-42, formic acid extractable fraction” value ([5]; 100 mg/Kg/d) of the same molecule?
Answer: 39%

Question: What about the “Aβ1-42, SDS-soluble fraction” value ([5]; BBR treatments (25 and 100 mg/Kg/d)) of the same molecule?
Answer: slight reduction

Question: What about the “reduction of total extracted Aβ40” value [5, 8] of the same molecule?
Answer: 44-49%

Question: And the “reduction of total extracted Aβ42” value [5, 8]?
Answer: 22-43%

Question: What about the “GFAP burden (astrocytosis) reduced to % relative to vehicle-treated” value ([6]; 25 mg/Kg) of the same molecule?
Answer: 54%

Question: And the “Iba-1 burden (microgliosis) reduced to % relative to vehicle-treated” value ([6]; 25 mg/Kg/d)?
Answer: 45%

Question: What about the “GFAP burden (astrocytosis) reduced to % relative to vehicle-treated” value ([6]; 100 mg/Kg) of the same molecule?
Answer: 28%

Question: And the “Iba-1 burden (microgliosis) reduced to % relative to vehicle-treated” value ([6]; 100 mg/Kg/d)?
Answer: 27%

Question: What about the decrease in astrocytosis [6, 9] of the same molecule?
Answer: 54%

Question: And the reduction in microgliosis [6, 9]?
Answer: 45%

Question: And the “reduction in the level of CTFs” value ([7]; 5 μM BBR, 12 hours)?
Answer: 24%

Question: What about the “decrease of p-APP (Thr668) level” value ([7]; 10 μM BBR, 12 hours) of the same molecule?
Answer: 50%

Question: What about the “level of tau bound to PHF-1 decreased to % compared to control” value ([7]; 10 μM BBR, 12 hours) of the same molecule?
Answer: 30%

Question: What about the “amount of phosphorylated GSK3, time course” value ([7]; 20 μM BBR, 0-180 min, remains higher than control beyond 3 h) of the same molecule?
Answer: increases during the first 30 min

Question: And the “decrease of p-APP (Thr668) level” value ([7]; 20 μM BBR, 12 hours)?
Answer: 75%

Question: What about the “level of tau bound to PHF-1 decreased to % compared to control” value ([7]; 20 μM BBR, 12 hours) of the same molecule?
Answer: 50%

Question: And the “reduction of CTFs level (of basal level), maximal” value ([7]; 20 μM BBR, 12 hours)?
Answer: 55%

Question: And the “phosphorylation of Akt at Ser 473 and GSK3 at Ser 21 and Ser9, concentration-dependent” value ([7]; BBR 10 and 20 μM, 3 hours)?
Answer: significant increases

Question: What about the “cellular total Akt and GSK3β levels” value ([7]; BBR treatment) of the same molecule?
Answer: does not significantly affect
